Source: US20170217964A1, “AMINOTETRAHYDROPYRAN DERIVATIVE USED AS DIPEPTIDYL PEPTIDASEIV INHIBITOR” (FUJIAN BORO MEDICAL CO., LTD., priority 2014, published 2017)

Experiments:
[1] = stability test of human liver microsomes; assay type: in vitro ADME
[2] = target: T1, DPP-4 enzyme (Homo sapiens, UniProt P27487); assay: Test of the inhibition activity to the DPP-4 enzyme (fluorescence, substrate Gly-Pro-7-amido-4-methylcoumarin); assay type: biochemical; details: in vitro; compounds of the examples; read-out: DPP-4 inhibition ID50
T1 construct: purchased SIGMA
Description: Test of the inhibition activity of the compound of the present invention to the DPP-4 enzyme: […]

T1 sequence (P27487 whole entry, species assumed): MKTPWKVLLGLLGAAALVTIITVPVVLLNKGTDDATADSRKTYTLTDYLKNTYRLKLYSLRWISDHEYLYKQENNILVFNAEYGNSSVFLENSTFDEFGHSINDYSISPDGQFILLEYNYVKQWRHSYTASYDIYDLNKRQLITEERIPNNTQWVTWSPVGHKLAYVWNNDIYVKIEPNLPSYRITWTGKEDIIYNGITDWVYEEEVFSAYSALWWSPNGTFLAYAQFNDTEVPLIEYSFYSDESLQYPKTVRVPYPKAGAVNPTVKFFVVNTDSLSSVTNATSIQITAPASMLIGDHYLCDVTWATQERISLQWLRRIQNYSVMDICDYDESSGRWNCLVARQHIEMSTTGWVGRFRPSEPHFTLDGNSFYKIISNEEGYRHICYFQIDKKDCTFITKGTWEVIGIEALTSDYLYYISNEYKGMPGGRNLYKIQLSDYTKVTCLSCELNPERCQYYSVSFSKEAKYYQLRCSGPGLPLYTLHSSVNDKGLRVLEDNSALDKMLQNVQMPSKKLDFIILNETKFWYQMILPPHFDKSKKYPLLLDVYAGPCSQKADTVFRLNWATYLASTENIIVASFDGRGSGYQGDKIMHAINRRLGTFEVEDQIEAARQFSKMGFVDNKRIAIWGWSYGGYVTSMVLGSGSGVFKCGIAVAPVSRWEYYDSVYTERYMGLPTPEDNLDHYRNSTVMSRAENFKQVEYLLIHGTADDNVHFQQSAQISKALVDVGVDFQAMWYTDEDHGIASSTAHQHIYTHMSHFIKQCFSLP

| Compound | metabolism stability compared with MK-3102 [1] | IC50 [2] |
| --- | --- | --- |
| N[C@H]1C[C@@H](N2Cc3cn(S(=O)(=O)N4CCOCC4)nc3C2)CO[C@@H]1c1cc(F)ccc1F [Compound 1, (2R, 3S, 5R)-2-(2,5-difluorophenyl)-5-[2-(morpholinesulfonyl)-2,6-dihydropyrrolo[3,4,-c]pyrazol-5(4H)-yl]tetrahydro-2H-pyran-3-amine] | better metabolism stability | 500 pM |
| N[C@H]1C[C@@H](N2Cc3cn(S(=O)(=O)N4CCCCC4)nc3C2)CO[C@@H]1c1cc(F)ccc1F [Compound 2, (2R, 3S, 5R)-2-(2,5-difluorophenyl)-5-[2-(piperidinesulfonyl)-2,6-dihydropyrrolo[3,4,-c]pyrazol-5(4H)-yl]tetrahydro-2H-pyran-3-amine] | – | 800 pM |
| N[C@H]1C[C@@H](N2Cc3cn(S(=O)(=O)N4CCCC4)nc3C2)CO[C@@H]1c1cc(F)ccc1F [Compound 3] | – | 300 pM |
| CN1CCN(S(=O)(=O)n2cc3c(n2)CN([C@H]2CO[C@H](c4cc(F)ccc4F)[C@@H](N)C2)C3)CC1 [Compound 4, (2R, 3S, 5R)-2-(2,5-difluorophenyl)-5-[2-(N-methylpiperazinesulfonyl)-2,6-dihydropyrrolo[3,4,-c]pyrazol-5(4H)-yl]tetrahydro-2H-pyran-3-amine] | better metabolism stability | 600 pM |
| N[C@H]1C[C@@H](N2Cc3cn(S(=O)(=O)N4CCN(C5CCCC5)CC4)nc3C2)CO[C@@H]1c1cc(F)ccc1F [Compound 5, (2R, 3S, 5R)-2-(2,5-difluorophenyl)-5-[2-(4-cyclopentylpiperazine-1-yl-sulfonyl)-2,6-dihydropyrrolo[3,4,-c]pyrazol-5(4H)-yl]tetrahydro-2H-pyran-3-amine] | – | 200 pM |
| N[C@H]1C[C@@H](N2Cc3cn(S(=O)(=O)N4CCC4)nc3C2)CO[C@@H]1c1cc(F)ccc1F [Compound 13, (2R, 3S, 5R)-2-(2,5-difluorophenyl)-5-[2-(azetidine-1-sulfonyl)-2,6-dihydropyrrolo[3,4,-c]pyrazol-5(4H)-yl]tetrahydro-2H-pyran-3-amine] | – | 500 pM |
| CC1CCN(S(=O)(=O)n2cc3c(n2)CN([C@H]2CO[C@H](c4cc(F)ccc4F)[C@@H](N)C2)C3)CC1 [Compound 14] | – | 400 pM |
| N[C@H]1C[C@@H](N2Cc3cn(S(=O)(=O)N4CC5CCCCC5C4)nc3C2)CO[C@@H]1c1cc(F)ccc1F (stereo partly drawn) [Compound 15, (2R, 3S, 5R)-2-(2,5-difluorophenyl)-5-[2-(perhydroindole-1 sulfonyl)-2,6-dihydropyrrolo[3,4,-c]pyrazol-5(4H)-yl]tetrahydro-2H-pyran-3-amine] | – | 700 pM |
